Data published in ChEMBL document CHEMBL5233214, “Tyrosinase inhibitors as potential antibacterial agents” (Eur J Med Chem, 2020).
In brackets after ≈: the same amount, converted by molar mass.

How the values were obtained:
Bacillus cereus = assay: Antibacterial activity against Bacillus cereus ATCC 27348 assessed as zone of inhibition at 10 ug per disk incubated for 12 hrs by paper-disk diffusion assay; assay type: functional; conditions: read-out: IZ
Bacillus subtilis [1] = assay: Antibacterial activity against Bacillus subtilis ATCC 9372 assessed as zone of inhibition at 10 ug per disk incubated for 12 hrs by paper-disk diffusion assay; assay type: functional; conditions: read-out: IZ
Tyrosinase [2] = target: T1, Tyrosinase (Agaricus bisporus, UniProt O42713); assay: Inhibition of mushroom tyrosinase using L-DOPA as substrate incubated for 10 mins by spectrophotometer assay
T1 sequence (O42713 whole entry): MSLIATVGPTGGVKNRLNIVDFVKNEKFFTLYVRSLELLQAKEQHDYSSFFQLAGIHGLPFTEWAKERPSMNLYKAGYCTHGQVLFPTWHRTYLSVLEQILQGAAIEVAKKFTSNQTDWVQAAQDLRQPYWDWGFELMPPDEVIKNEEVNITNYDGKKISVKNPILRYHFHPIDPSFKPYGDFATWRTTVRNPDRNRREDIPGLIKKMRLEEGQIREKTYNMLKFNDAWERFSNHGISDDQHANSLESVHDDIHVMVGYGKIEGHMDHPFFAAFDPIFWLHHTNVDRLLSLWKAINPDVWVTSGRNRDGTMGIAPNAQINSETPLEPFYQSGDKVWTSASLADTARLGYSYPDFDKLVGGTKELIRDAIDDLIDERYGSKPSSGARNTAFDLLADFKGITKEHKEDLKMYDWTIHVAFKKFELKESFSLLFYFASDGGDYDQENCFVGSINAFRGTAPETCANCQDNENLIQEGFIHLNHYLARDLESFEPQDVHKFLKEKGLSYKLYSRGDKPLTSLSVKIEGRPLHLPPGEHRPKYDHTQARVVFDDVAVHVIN

Staphylococcus aureus [3] = assay: Antibacterial activity against Staphylococcus aureus ATCC 13301 assessed as zone of inhibition at 10 ug per disk incubated for 12 hrs by paper-disk diffusion assay; assay type: functional; conditions: read-out: IZ
Klebsiella pneumoniae = assay: Antibacterial activity against Klebsiella pneumoniae ATCC 13883 assessed as inhibition of bacterial growth incubated for 18 to 24 hrs by serial dilution method; assay type: functional; conditions: time 18-24 hrs
Salmonella typhimurium = assay: Antibacterial activity against Salmonella enterica subsp. enterica serovar Typhimurium ATCC 14028 assessed as inhibition of bacterial growth incubated for 18 to 24 hrs by serial dilution method; assay type: functional; conditions: time 18-24 hrs
Bacillus subtilis [4] = assay: Antibacterial activity against Bacillus subtilis ATCC 66333 assessed as inhibition of bacterial growth incubated for 18 to 24 hrs by serial dilution method; assay type: functional; conditions: time 18-24 hrs
[5] = test system: Staphylococcus epidermidis; assay: Antibacterial activity against Staphylococcus epidermidis ATCC 14990 assessed as inhibition of bacterial growth incubated for 18 to 24 hrs by serial dilution method; assay type: functional; conditions: time 18-24 hrs
Enterobacter cloacae = assay: Antibacterial activity against Enterobacter cloacae ATCC 13047 assessed as inhibition of bacterial growth incubated for 18 to 24 hrs by serial dilution method; assay type: functional; conditions: time 18-24 hrs
Tyrosinase [6] = target: T1, Tyrosinase; assay: Inhibition of mushroom tyrosinase using L-DOPA as substrate incubated for 20 mins by microplate reader assay
Proteus vulgaris = assay: Antibacterial activity against Proteus vulgaris ATCC 13315 assessed as inhibition of bacterial growth incubated for 18 to 24 hrs by serial dilution method; assay type: functional; conditions: time 18-24 hrs
[7] = test system: Staphylococcus epidermidis; assay: Antibacterial activity against Staphylococcus epidermidis ATCC 35984 assessed as inhibition of bacterial growth incubated for 24 hrs by two-fold serial dilution method; assay type: functional
Tyrosinase [8] = target: T1, Tyrosinase; assay: Inhibition of mushroom tyrosinase using L-DOPA as substrate pre-incubated for 10 mins followed by substrate addition and measured after 20 mins by microplate reader assay
Staphylococcus aureus [9] = assay: Antibacterial activity against Methicillin-resistant Staphylococcus aureus assessed as inhibition of bacterial growth by broth microdilution method
[10] = test system: Staphylococcus epidermidis; assay: microbe, parasite or virus in culture; conditions: TISTR 517
Description: Antibacterial activity against Staphylococcus epidermidis TISTR 517 assessed as inhibition of bacterial growth by broth microdilution method

Staphylococcus aureus [11] = assay: microbe, parasite or virus in culture; conditions: ATTC 25923
Description: Antibacterial activity against Staphylococcus aureus ATTC 25923 assessed as inhibition of bacterial growth by broth microdilution method

Tyrosinase [12] = target: T2, Tyrosinase (Homo sapiens, UniProt P14679); assay: Inhibition of tyrosinase (unknown origin) using DOPA as substrate incubated for 15 min by spectrophotometer assay
T2 sequence (P14679 whole entry): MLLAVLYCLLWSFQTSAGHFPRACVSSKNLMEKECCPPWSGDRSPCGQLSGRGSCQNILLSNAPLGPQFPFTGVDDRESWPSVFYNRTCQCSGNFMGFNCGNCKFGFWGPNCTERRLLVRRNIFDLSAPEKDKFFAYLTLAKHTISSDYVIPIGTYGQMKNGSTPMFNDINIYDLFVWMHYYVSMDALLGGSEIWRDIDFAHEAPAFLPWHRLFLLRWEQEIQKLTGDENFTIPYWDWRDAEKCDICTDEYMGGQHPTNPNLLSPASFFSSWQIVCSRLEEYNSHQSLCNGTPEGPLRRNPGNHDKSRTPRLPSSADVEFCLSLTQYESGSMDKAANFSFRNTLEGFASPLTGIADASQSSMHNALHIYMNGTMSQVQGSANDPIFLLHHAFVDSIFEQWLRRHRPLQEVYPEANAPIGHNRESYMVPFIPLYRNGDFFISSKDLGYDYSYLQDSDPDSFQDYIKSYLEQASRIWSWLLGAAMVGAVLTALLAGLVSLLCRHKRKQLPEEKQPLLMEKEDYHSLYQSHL

Fusobacterium nucleatum = assay: Antibacterial activity against Fusobacterium nucleatum ATCC 10953 assessed as inhibition of bacterial growth incubated for 48 hrs by microbroth dilution method; assay type: functional
Staphylococcus aureus [13] = assay: Antibacterial activity against Staphylococcus aureus assessed as zone of inhibition; assay type: functional
Bacillus subtilis [14] = assay: Antibacterial activity against Bacillus subtilis assessed as zone of inhibition at 300 ug/ml; assay type: functional; conditions: read-out: IZ
Enterococcus faecalis = assay: Antibacterial activity against Enterococcus faecalis assessed as zone of inhibition; assay type: functional, organism-based
Staphylococcus aureus [15] = assay: Antibacterial activity against Methicillin-resistant Staphylococcus aureus assessed as inhibition of bacterial growth by agar dilution method; assay type: functional

Molecule: C=C(C)C(CC=C(C)C)Cc1c(O)cc(OC)c2c1O[C@H](c1ccc(O)cc1O)CC2=O (some centres not stated) [KURARINONE]
- zone of inhibition at 10 µg/disc (Bacillus cereus): 14 mm
- zone of inhibition at 10 µg/disc (Bacillus subtilis [1]): 14 mm
- IC50 (Tyrosinase [2]): 2.19 µM
- zone of inhibition at 10 µg/disc (Staphylococcus aureus [3]): 14 mm

Molecule: Nc1ccccc1C1=NNC(c2ccccn2)C1 (configuration not stated)
- MIC (Klebsiella pneumoniae): 18.8 µg/mL (≈ 78.7 µM)
- MIC (Salmonella typhimurium): 18.8 µg/mL (≈ 78.7 µM)
- MIC (Bacillus subtilis [4]): 18.8 µg/mL (≈ 78.7 µM)
- MIC [5]: 18.8 µg/mL (≈ 78.7 µM)
- MIC (Enterobacter cloacae): 18.8 µg/mL (≈ 78.7 µM)
- IC50 (Tyrosinase [6]): 420 µM
- MIC (Proteus vulgaris): 18.8 µg/mL (≈ 78.7 µM)

Molecule: F[B-]1(F)Nc2ccccc2C2=[N+]1NC(c1ccncc1)C2 (configuration not stated)
- MIC [5]: 37.5 µg/mL (≈ 131 µM)
- IC50 (Tyrosinase [6]): > 699 µM

Molecule: C=C(C)C(CC=C(C)C)Cc1c(O)cc(O)c2c1O[C@H](c1ccc(O)cc1O)CC2=O (some centres not stated)
- MIC [7]: 3.12 µg/mL (≈ 7.36 µM)
- zone of inhibition at 10 µg/disc (Bacillus cereus): 14 mm
- zone of inhibition at 10 µg/disc (Bacillus subtilis [1]): 14 mm
- IC50 (Tyrosinase [2]): 4.71 µM
- zone of inhibition at 10 µg/disc (Staphylococcus aureus [3]): 14 mm

Molecule: CCn1cc(C(=O)O)c(=O)c2cc(F)c(N3CCNCC3)cc21 [NORFLOXACIN]
- IC50 (Tyrosinase [6]): 2.19 µM

Molecule: CC(C)=CCC/C(C)=C/Cc1c(O)ccc(C=O)c1O
- IC50 (Tyrosinase [8]): > 729 µM
- MIC (Staphylococcus aureus [9]): < 8 µg/mL
- MIC [10]: < 8 µg/mL
- MIC (Staphylococcus aureus [11]): < 8 µg/mL

Molecule: CC(C)=CCC[C@@](C)(O)[C@@H]1CC=C(C)CC1
- IC50 (Tyrosinase [12]): 2860 µM
- MIC (Fusobacterium nucleatum): 8 µg/mL (≈ 36 µM)

Molecule: F[B-]1(F)Nc2ccccc2C2=[N+]1NC(c1ccccn1)C2 (configuration not stated)
- MIC (Klebsiella pneumoniae): 37.5 µg/mL (≈ 131 µM)
- MIC (Salmonella typhimurium): 37.5 µg/mL (≈ 131 µM)
- MIC (Bacillus subtilis [4]): 37.5 µg/mL (≈ 131 µM)
- MIC [5]: 37.5 µg/mL (≈ 131 µM)
- MIC (Enterobacter cloacae): 37.5 µg/mL (≈ 131 µM)
- IC50 (Tyrosinase [6]): 350 µM
- MIC (Proteus vulgaris): 37.5 µg/mL (≈ 131 µM)

Molecule: O=c1c(O[C@@H]2O[C@H](CO)[C@H](O)[C@H](O)[C@H]2O)c(-c2ccc(O)c(O)c2)oc2cc(O)cc(O)c12 [HYPEROSIDE]
- IC50 (Tyrosinase [12]): 1.64 µM

Molecule: C=C(C)C(CCC(C)(C)O)Cc1c(O)cc(OC)c2c1O[C@H](c1ccc(O)cc1O)CC2=O (some centres not stated)
- IC50 (Tyrosinase [2]): 0.11 µM

Molecule: COc1c(N2C[C@@H]3CCCN[C@@H]3C2)c(F)cc2c(=O)c(C(=O)O)cn(C3CC3)c12 [MOXIFLOXACIN]
- IC50 (Tyrosinase [6]): 2.99 µM

Molecule: Nc1ccccc1C1=NNC(c2ccncc2)C1 (configuration not stated)
- MIC [5]: 37.5 µg/mL (≈ 157 µM)
- IC50 (Tyrosinase [6]): 420 µM

Molecule: CN[C@@H]1[C@H](O[C@H]2[C@H](O[C@H]3[C@H](O)[C@@H](O)[C@H](N=C(N)N)[C@@H](O)[C@@H]3N=C(N)N)O[C@@H](C)[C@]2(O)C=O)O[C@@H](CO)[C@H](O)[C@H]1O [STREPTOMYCIN]
- inhibition zone (IZ) (Staphylococcus aureus [13]): 20.3 mm

Molecule: Nc1ccccc1C1=NNC(c2cccnc2)C1 (configuration not stated)
- MIC [5]: 150 µg/mL (≈ 629 µM)
- IC50 (Tyrosinase [6]): 420 µM

Molecule: OCCc1ccccc1 [PHENYLETHYL ALCOHOL]
- IC50 (Tyrosinase [12]): 2580 µM
- MIC (Fusobacterium nucleatum): 8 µg/mL (≈ 65.5 µM)

Molecule: O=c1cc2n(c3ccccc13)[B-](F)(F)[n+]1ccccc1-2
- MIC (Klebsiella pneumoniae): ≤ 18.8 µg/mL
- MIC (Salmonella typhimurium): ≤ 18.8 µg/mL
- MIC (Bacillus subtilis [4]): ≤ 18.8 µg/mL
- MIC [5]: ≤ 18.8 µg/mL
- MIC (Enterobacter cloacae): ≤ 18.8 µg/mL
- IC50 (Tyrosinase [6]): > 741 µM
- MIC (Proteus vulgaris): ≤ 18.8 µg/mL

Molecule: C[C@@H]1O[C@@H](OC[C@H]2O[C@@H](Oc3c(-c4ccc(O)cc4)oc4cc(O)cc(O)c4c3=O)[C@H](O)[C@@H](O)[C@@H]2O)[C@H](O)[C@H](O)[C@H]1O [NICOTIFLOROSIDE]
- IC50 (Tyrosinase [12]): 1.53 µM

Molecule: CC1(C)S[C@@H]2[C@H](NC(=O)[C@H](N)c3ccccc3)C(=O)N2[C@H]1C(=O)O [AMPICILLIN]
- zone of inhibition at 300 µg/mL (Bacillus subtilis [14]): 17.9 mm

Molecule: F[B-]1(F)Nc2ccccc2C2=[N+]1NC(c1cccnc1)C2 (configuration not stated)
- MIC [5]: 18.8 µg/mL (≈ 65.5 µM)
- IC50 (Tyrosinase [6]): 350 µM

Molecule: GENTAMICIN
- inhibition zone (IZ) (Enterococcus faecalis): 10.6 mm

Molecule: C[C@@H]1O[C@@H](OC[C@H]2O[C@@H](Oc3c(-c4ccc(O)c(O)c4)oc4cc(O)cc(O)c4c3=O)[C@H](O)[C@@H](O)[C@@H]2O)[C@H](O)[C@H](O)[C@H]1O [RUTIN]
- IC50 (Tyrosinase [12]): 1.4 µM

Molecule: O=c1cc(-c2ccc(O)c(O)c2)oc2cc(O)cc(O)c12 [LUTEOLIN]
- IC50 (Tyrosinase [12]): 2.14 µM
- MIC (Staphylococcus aureus [15]): 31.2 µg/mL (≈ 109 µM)
